Results from patent publication US12558326B2, “Method for treating epilepsy” (Xenon Pharmaceuticals Inc., priority 2018, dated 2026).

Test system: DBA/2 mice
Experiment: Audiogenic seizure test in DBA/2 mice
Type: in vivo, mouse
Details: for Clonic Convulsion Incidence / Tonic Extension Incidence / Wild Running Incidence / Clonic Convulsion Latency / Tonic Extension Latency / Wild Running Latency / Audiogenic Response Score: 60 min prior; for Clonic Convulsion Incidence / Tonic Extension Incidence / Wild Running Incidence / Audiogenic Response Score: n=10; for Clonic Convulsion Latency / Tonic Extension Latency / Wild Running Latency / Audiogenic Response Score: mean ± SEM; for Clonic Convulsion Latency / Tonic Extension Latency / Wild Running Latency: maximum 60 s; for Audiogenic Response Score: score 0-4; for change in number of mice showing clonic convulsions / change in number of mice showing tonic convulsions / increase in latency to clonic convulsions / increase in latency to tonic convulsions / reduction of overall audiogenic response score: versus vehicle controls; for anticonvulsant activity in the audiogenic seizure test: (R/S)-fenfluramine at 15 and 30 mg/kg, (R)-fenfluramine at 30 mg/kg
Protocol: DBA/2 is a widely used inbred strain of mouse susceptible to audiogenic seizures due to the asp2 mutation. […] The objective of this study was to evaluate the anticonvulsant activity of (R/S)-fenfluramine and to compare it to (R)-fenfluramine in the DBA/2 mouse.
The method follows that described by Dilrmuiller et al., Neuroreport 4(6):683-686. Mice (DBA/2, 3-4 weeks old) were individually transferred (at 3-5 minute intervals) from the preparation room into an adjacent experimental room and placed in a Plexiglas™ jar (Diameter=40 cm; Height=35 cm) mounted with an electric bell (110-120 dB). Upon activating the bell, the occurrences and latencies to wild running fits, clonic and tonic seizures were measured. The number of deaths was also recorded. An audiogenic response score was assigned to each mouse as 0 (no seizure), 1 (wild running), 2 (clonic convulsion), 3 (tonic extension), or 4 (death). The bell was activated until a tonic seizure occurred or for a maximum of 60 seconds. Ten (10) mice were studied per group. The test was performed blind. All test compounds were dissolved in 0.9% saline (vehicle) and were administered by intraperitoneal (IP) injection at a dose volume of 10 mL/kg. Vehicle alone, (R/S)-fenfluramine (15 or 30 mg/kg) or (R)-fenfluramine (30 mg/kg) were administered 60 minutes prior to seizure induction. The positive reference compound (valproate; 180 mg/kg) was administered 30 minutes prior to seizure induction.

| Structure (SMILES) | Clonic Convulsion Incidence (30 mg/kg IP) [%] | Tonic Extension Incidence (30 mg/kg IP) [%] | Wild Running Incidence (30 mg/kg IP) [%] | Clonic Convulsion Latency (30 mg/kg IP) [s] | Tonic Extension Latency (30 mg/kg IP) [s] | Wild Running Latency (30 mg/kg IP) [s] | Audiogenic Response Score (30 mg/kg IP) | change in number of mice showing clonic convulsions (30 mg/kg IP) [%] | change in number of mice showing tonic convulsions (30 mg/kg IP) [%] | increase in latency to clonic convulsions (30 mg/kg IP) | increase in latency to tonic convulsions (30 mg/kg IP) | reduction of overall audiogenic response score (30 mg/kg IP) [%] | anticonvulsant activity in the audiogenic seizure test | other results |
| --- | --- | --- | --- | --- | --- | --- | --- | --- | --- | --- | --- | --- | --- | --- |
| CCNC(C)Cc1cccc(C(F)(F)F)c1 (racemic) [(rac)-fenfluramine, (R/S)—N-ethyl-1-(3-(trifluoromethyl)phenyl)propan-2-amine] | 10 | 0 | 80 | 55.3 ± 4.8 | 60.0 ± 0.0 | 16.6 ± 7.4 | 0.9 ± 0.18 | −90 | −100 | +853% | +641% | 72 | clear anticonvulsant activity | Clonic Convulsion Incidence (15 mg/kg IP): 60%; Tonic Extension Incidence (15 mg/kg IP): 0%; Wild Running Incidence (15 mg/kg IP): 100%; Clonic Convulsion Latency (15 mg/kg IP): 31.4 ± 7.8 s; Tonic Extension Latency (15 mg/kg IP): 60.0 ± 0.0 s; Wild Running Latency (15 mg/kg IP): 4.0 ± 0.7 s; Audiogenic Response Score (15 mg/kg IP): 1.6 ± 0.16; change in number of mice showing clonic convulsions (15 mg/kg IP): −40%; change in number of mice showing tonic convulsions (15 mg/kg IP): −100%; increase in latency to clonic convulsions (15 mg/kg IP): +441%; increase in latency to tonic convulsions (15 mg/kg IP): +641%; reduction of overall audiogenic response score (15 mg/kg IP): 50% |
| CCN[C@H](C)Cc1cccc(C(F)(F)F)c1 [(R)-fenfluramine, (R)—N-ethyl-1-(3-(trifluoromethyl)phenyl)propan-2-amine] | 60 | 0 | 100 | 31.9 ± 7.7 | 60.0 ± 0.0 | 5.0 ± 1.4 | 1.6 ± 0.16 | −40 | −100 | +450% | +641% | 50 | clear anticonvulsant activity |  |
